Test results: patent publication US9249115B2, “N,N1 substituted piperazines having combined antiaggregant, anticoagulant and vasodilatory activity, and method for producing same” (Vertex Closed Joint Stock Company, priority 2011, dated 2016)

Key:
[1] = system: Thrombocyte aggregation induced by arachidonic acid; test: Thrombocyte aggregation induced by arachidonic acid; type: cell-based, human; conditions: arachidonic acid 0.2 mmol
Method: (§1) The study of antiaggregant and anticoagulant properties of N,N′-substituted piperazines on the sample of donor human blood. The blood was collected by donor ulnar vein punction with dry sharp needle without syringe. The administration of drugs that influence on thrombocyte function was cancelled in 7÷10 days before the experiment.
(§2) In graduated plastic centrifuge tube 1 ml of 3.8% basic trisodium citrate solution with pH=7.4 was placed. The ulnar vein was punctuated, the freely effluent blood was collected up to 10 ml mark, the mixture was instantly stirred to prevent air bubbles appearance. The collected and stabilized blood was split in two 5 ml portions in two tubes.
(§3) To obtain thrombocyte enriched plasm the stabilized blood was spinned at 1000 rpm (150 g) for 8 min at room temperature. The repeated spinning of the blood at 3200 rpm (2300 g) for 20 min at 22° C. yielded thrombocyte depleted plasm.
The study of antiaggregant properties of N,N′-substituted piperazines with arachidonic acid (CHRONO-LOG, USA) as an inductor: to 450 l of thrombocyte plasm 50 l of N,N′-substituted piperazine solution was added, the mixture was incubated in the cuvette of CHRONO-LOG aggregometer for 15 min at 36° C. The concentration of arachidonic acid in the sample was 0.2 mmol, the concentrations of N,N′-substituted piperazines and comparison substance (aspirin) were 4÷5 mmol/L.
It was shown that N,N′-substituted piperazines have pronounced aspirin-like activity by inhibiting thrombocyte aggregation induced by arachidonic acid (table 5).

[2] = system: Ristocetin-induced thrombocyte aggregation; test: Ristocetin-induced thrombocyte aggregation, donor human thrombocyte enriched plasm; type: cell-based; conditions: ristocetin inductor; for MA (60 c), %: amplitude at 60 s
Method: as §1, §2, §3
(§4) The study of anticoagulant activity was done within 2 h after thrombocyte enriched plasm obtaining. The plasm was normalized to achieve thrombocyte concentration of 200-250×10^9/L by addition of thrombocyte-free plasm. The concentration of thrombocytes was measured on SOLAR AR 2110 analyzer.
(§5) Antiaggregant properties of N,N′-substituted piperazines were evaluated by their influence on thrombocyte aggregation in tests with ADP-, collagen- and ristocetin-induced aggregation. To dissolve N,N′-substituted piperazines and to dilute reagents Tris-HCl-buffer with pH=7.4 was used.
(§6) As the general characteristic of thrombocyte aggregation activity the maximum amplitude (MA) of aggregation was taken on. That is the peak value of transmittance coefficient of the sample after aggregation agent introduction expressed in % relative to the transmittance of thrombocyte-free plasm. The response was registered on ascending linear segment of aggregation curve for 16 s.
(§7) The measurements were done using 4-channel CHRONO-LOG 490-4D analyzer (CHRONO-LOG, USA). The temperature in the cell was 37° C., the spinning speed of magnetic stirrer was 1200 rpm.
(§8) In a cuvette 0.5 ml of N,N′-substituted piperazine solution was placed, then 0.4 ml of normalized thrombocyte plasm was added. The mixture was stirred and incubated at 37° C. for 5 min. The cuvette was placed in aggregometer, then 0.05 ml of aggregation inductor solution was added (ADP or collagen or ristocetin). Thrombocyte aggregation was measured for 3 min.
To study ristocetin-induced thrombocyte aggregation CHRONO-PAR RISTOCETIN reagent (CHRONO-LOG, USA) was diluted with buffer solution until ristocetin concentration reached 12 mg/ml. Thrombocyte aggregation amplitude was measured in 60 s after the beginning of the reaction.

[3] = system: Collagen-induced thrombocyte aggregation; test: Collagen-induced thrombocyte aggregation, donor human thrombocyte enriched plasm; type: cell-based; conditions: collagen inductor; for MA, %: human thrombocyte plasm
Method: as §1, §2, §3, §4, §5, §6, §7, §8
In collagen-induced thrombocyte aggregation test CHRONO-PAR COLLAGEN reagent (CHRONO-LOG, USA) was diluted with buffer solution until collagen concentration reached 10 µg/ml.

[4] = system: ADP-induced thrombocyte aggregation; test: ADP-induced thrombocyte aggregation, donor human thrombocyte enriched plasm; type: cell-based; conditions: ADP inductor; for MA, %: human thrombocyte plasm
Method: as §1, §2, §3, §4, §5, §6, §7, §8
ADP-induced reversible thrombocyte aggregation test utilized CHRONO-PAR ADP reagent (CHRONO-LOG, USA) with 10 mol concentration. Primary (reversible) thrombocyte aggregation was evaluated by the response on addition of ADP threshold dose (ADP concentration is 1 mol) to plasm.

[5] = system: experimental photothrombosis; test: Experimental photothrombosis model, arterial blood velocity; type: in vivo, Wistar male rats
Method: The studies were done on Wistar male rats with mass of 230±30 g (laboratory animals nursery “Rappolovo”, RAMS). The animals were kept with unlimited food (standard ration for laboratory rats K-120 by <<Inform-korm>>, Russia) and water allowance. […]
Thrombosis modeling: the drugs were introduced into left femoral vein, in 50 min afterwards 1 ml of Bengal rose A photosensitizer (Acros Organics, USA) solution was introduced with dose of 17 mg/kg [Boselli 2007, Petrischev 2009]. Then the incision of internal surface of animal right thigh about 2 cm in length was made. The section of the femoral vein about 5 mm in length was released from surrounding tissues and separated from neurovascular bundle. Beneath this section of the vein the black non-transparent plastic strip 3 mm in width was laid to screen off the vein and surrounding tissues from radiation. The irradiation was done using diode laser <<DPSS-laser>> (Diode Pumped Solid State Laser, South Korea) with 532 nm wavelength and 60 mW power. The area of irradiation was 1 mm^2, exposing time was 40 min. The blood flow in femoral artery was measured by high frequency Doppler ultrasonography method (<<Minimax-Doppler-K>> apparatus, frequency of sensor was 20 MHz). The blood velocity alteration due to irradiation was measured (Table 9).

[6] = Homo sapiens, 0.5 mmol/L, read-out: (MA0-MAx): MA0 * 100%
[7] = Homo sapiens, 1.25 mmol/L, read-out: (MA0-MAx): MA0 * 100%

Question: What does the source list for `COc1ccc(CN2CCN(C(=N)N)CC2)c(OC)c1OC` [Example 7, 4-(2,3,4-trimethoxybenzyl)piperazine-1-carboximidamide monohydrate]?
Answer: MA ([1]; 4.5 mmol/L): 72; Max. rate for 16 sec ([1]; 4.5 mmol/L): 49; inhibition at 4500 µM ([1]; Homo sapiens, 4.5 mmol/L): 35%

Question: `Cl.N=C(N)N1CCN(S(=O)(=O)c2cc(Cl)c(Cl)cc2Cl)CC1` [Example 13, 4-(2,4,5-trichlorophenylsulfonyl)piperazine-1-carboximidamide hydrochloride] was tested. Which “(MAx-MA0): MA0 * 100%” value ([2]; 0.2 mmol/L) did it give?
Answer: 1.8%

Question: And the “MA (60 c), %” value ([2]; 0.2 mmol/L)?
Answer: 60.1 ± 8.1%

Question: What about the “(MAx-MA0): MA0 * 100%” value ([2]; 0.5 mmol/L) of the same compound?
Answer: 22.5%

Question: And the “MA (60 c), %” value ([2]; 0.5 mmol/L)?
Answer: 48.2 ± 7.5%

Question: What about the “(MAx-MA0): MA0 * 100% (Ozagrel: (MA0-MAx): MA0 * 100%)” value ([2]; 1.25 mmol/L) of the same compound?
Answer: 30.9%

Question: And the “MA (60 c), %” value ([2]; 1.25 mmol/L)?
Answer: 43.0 ± 4.8%

Question: What about the “(MAx-MA0): MA0 * 100% (Ozagrel: (MA0-MAx): MA0 * 100%)” value ([2]; 2.5 mmol/L) of the same compound?
Answer: 43.4%

Question: What about the “MA (60 c), %” value ([2]; 2.5 mmol/L) of the same compound?
Answer: 35.2 ± 7.6%

Question: What about the “(MAx-MA0): MA0 * 100% (Ozagrel: (MA0-MAx): MA0 * 100%)” value ([2]; 5.0 mmol/L) of the same compound?
Answer: 48.4%

Question: And the “MA (60 c), %” value ([2]; 5.0 mmol/L)?
Answer: 32.1 ± 5.5%

Question: What about the “MA, %” value ([3]; 0.5 mmol/L) of the same compound?
Answer: 72.1 ± 6.3%

Question: What about the “MA, %” value ([3]; 1.25 mmol/L) of the same compound?
Answer: 62.0 ± 9.8%

Question: And the “MA, %” value ([3]; 2.5 mmol/L)?
Answer: 55.0 ± 9.2%

Question: And the “MA, %” value ([3]; 5.0 mmol/L)?
Answer: 48.7 ± 7.1%

Question: And the inhibition at 500 µM [3, 6]?
Answer: 7.2%

Question: What about the inhibition at 1250 µM [3, 7] of the same compound?
Answer: 20.2%

Question: What about the inhibition at 2500 µM ([3]; Homo sapiens, 2.5 mmol/L, read-out: (MA0-MAx): MA0 * 100%) of the same compound?
Answer: 29.2%

Question: What about the inhibition at 5000 µM ([3]; Homo sapiens, 5.0 mmol/L, read-out: (MA0-MAx): MA0 * 100%) of the same compound?
Answer: 37.3%

Question: And the “MA, %” value ([4]; 0.2 mmol/L)?
Answer: 14.0 ± 3.9%

Question: What about the “MA, %” value ([4]; 0.5 mmol/L) of the same compound?
Answer: 10.3 ± 1.3%

Question: And the “MA, %” value ([4]; 1.25 mmol/L)?
Answer: 4.7 ± 2.1%

Question: What about the “MA, %” value ([4]; 2.50 mmol/L) of the same compound?
Answer: 1.4 ± 0.2%

Question: And the inhibition at 200 µM ([4]; Homo sapiens, 0.2 mmol/L, read-out: (MA0-MAx): MA0 * 100%)?
Answer: 10.8%

Question: What about the inhibition at 500 µM [4, 6] of the same compound?
Answer: 34.4%

Question: What about the inhibition at 1250 µM [4, 7] of the same compound?
Answer: 70.1%

Question: And the inhibition at 2500 µM ([4]; Homo sapiens, 2.50 mmol/L, read-out: (MA0-MAx): MA0 * 100%)?
Answer: 91.1%

Question: And the MA ([1]; 4.0 mmol/L)?
Answer: 2

Question: And the “Max. rate for 16 sec” value ([1]; 4.0 mmol/L)?
Answer: 1

Question: And the inhibition at 4000 µM ([1]; Homo sapiens, 4.0 mmol/L)?
Answer: 100%

Question: With `COc1ccc(CN2CCN(CC(O)CS(=O)(=O)[O-])CC2)c(OC)c1OC.[Na+]` (centres unmarked) [Example 3, 3-(1-(2,3,4-trimethoxybenzyl)piperazine-4-yl)-2-hydroxy-1-propanesulfonic acid sodium salt] as the compound, how does the “V, cm/s (arterial blood velocity)” value ([5]; 0.01 mmol/kg, 0 min of irradiation) read?
Answer: 7.1 ± 3.2 cm/s

Question: What about the “V, cm/s (arterial blood velocity)” value ([5]; 0.01 mmol/kg, 10 min of irradiation) of the same compound?
Answer: 7.00 ± 2.4 cm/s

Question: And the “V, cm/s (arterial blood velocity)” value ([5]; 0.01 mmol/kg, 20 min of irradiation)?
Answer: 7.5 ± 2.2 cm/s

Question: What about the “V, cm/s (arterial blood velocity)” value ([5]; 0.01 mmol/kg, 30 min of irradiation) of the same compound?
Answer: 6.4 ± 1.9 cm/s

Question: What about the “V, cm/s (arterial blood velocity)” value ([5]; 0.01 mmol/kg, 40 min of irradiation) of the same compound?
Answer: 6.6 ± 1.5 cm/s

Question: What about the “V, cm/s (arterial blood velocity)” value ([5]; 0.025 mmol/kg, 0 min of irradiation) of the same compound?
Answer: 8.5 ± 1.7 cm/s

Question: And the “V, cm/s (arterial blood velocity)” value ([5]; 0.025 mmol/kg, 10 min of irradiation)?
Answer: 8.4 ± 1.2 cm/s

Question: What about the “V, cm/s (arterial blood velocity)” value ([5]; 0.025 mmol/kg, 20 min of irradiation) of the same compound?
Answer: 8.4 ± 3.0 cm/s

Question: And the “V, cm/s (arterial blood velocity)” value ([5]; 0.025 mmol/kg, 30 min of irradiation)?
Answer: 8.9 ± 1.6 cm/s

Question: And the “V, cm/s (arterial blood velocity)” value ([5]; 0.025 mmol/kg, 40 min of irradiation)?
Answer: 8.5 ± 1.2 cm/s

Question: And the “(MAx-MA0): MA0 * 100%” value ([2]; 0.5 mmol/L)?
Answer: 6.1%

Question: And the “MA (60 c), %” value ([2]; 0.5 mmol/L)?
Answer: 63.0 ± 6.1%

Question: What about the “(MAx-MA0): MA0 * 100% (Ozagrel: (MA0-MAx): MA0 * 100%)” value ([2]; 1.25 mmol/L) of the same compound?
Answer: 7.5%

Question: What about the “MA (60 c), %” value ([2]; 1.25 mmol/L) of the same compound?
Answer: 62.1 ± 8.9%

Question: And the “(MAx-MA0): MA0 * 100% (Ozagrel: (MA0-MAx): MA0 * 100%)” value ([2]; 2.5 mmol/L)?
Answer: 24.0%

Question: And the “MA (60 c), %” value ([2]; 2.5 mmol/L)?
Answer: 51.0 ± 7.2%

Question: And the “(MAx-MA0): MA0 * 100% (Ozagrel: (MA0-MAx): MA0 * 100%)” value ([2]; 5.0 mmol/L)?
Answer: 77.5%

Question: And the “MA (60 c), %” value ([2]; 5.0 mmol/L)?
Answer: 25.1 ± 3.2%

Question: `CC(=O)Oc1ccccc1C(=O)O` [Acetylsalicylic acid, reference compound] was tested. Which MA ([1]; 5 mmol/L) did it give?
Answer: 3

Question: What about the “Max. rate for 16 sec” value ([1]; 5 mmol/L) of the same compound?
Answer: 5

Question: And the inhibition at 5000 µM ([1]; Homo sapiens, 5 mmol/L)?
Answer: 100%
